Measurements taken from publication PMC11396803, “Synthesis of Tumor Selective Indole and 8-Hydroxyquinoline Skeleton Containing Di-, or Triarylmethanes with Improved Cytotoxic Activity” (Molecules, 2024).
Read-outs that look alike come from different tables or passages of the source.

How the values were obtained:
Type in all cases: cell-based, human
[1] = tested on: Colo205 colon adenocarcinoma cell line; test: MTT cytotoxicity assay on doxorubicin-sensitive Colo205 cells; conditions: for IC50: Homo sapiens, COLO 205; for IC50 / Cytotoxic effect on Colo205 cells (in words): MTT; for Cytotoxic effect on Colo205 cells (in words): up to 100 µM; for Selectivity index SI MRC-5/Colo205: ratio of IC50 in non-tumor MRC-5 cells and IC50 in Colo205
Description: (§1) The doxorubicin-sensitive Colo205 (ATCC-CCL-222) and the doxorubicin-resistant ABCB1- and LRP-expressing Colo320/MDR-LRP (ATCC-CCL-220.1) human colon adenocarcinoma cell lines were obtained from LGC Promochem in Teddington, UK. These cell lines were cultivated in RPMI 1640 medium supplemented with 10% heat-inactivated foetal bovine serum (FBS), 2 mM L-glutamine, 1 mM Na-pyruvate, 10 mM HEPES, along with nystatin, and gentamicin. The normal MRC-5 (ATCC CCL-171) human embryonic lung fibroblast cell line was purchased from Sigma-Aldrich (Merck KGaA, Darmstadt, Germany). The MRC-5 cells were cultured in EMEM medium, supplemented with 1% non-essential amino acid (NEAA) mixture, a selection of vitamins, 10% heat-inactivated FBS, 2 mM L-glutamine, 1 mM Na pyruvate, nystatin, and gentamicin. The cell lines were incubated in humidified atmosphere (5% CO2, 95% air) at 37 °C. The cells were detached with a Trypsin-Versene (EDTA) solution for 5 min at 37 °C.
(§2) The effects of increasing concentrations of the compounds on cell growth were tested in 96-well flat-bottomed microtiter plates. Namely, 1 × 10^4 of human colonic adenocarcinoma cells in 100 μL of the medium (RPMI 1640) were added to each well, except for the medium control wells. The adherent human embryonic lung fibroblast cell line was seeded in the EMEM medium for 24 h before the assay. The two-fold serial dilutions of the compounds were made in a separate plate (100–0.19 μM) and then transferred to the plates containing the cells. The starting concentration of the solvent DMSO was 2% v/v, and the highest concentration of the compounds in the plate was 100 μM. Plates were incubated at 37 °C for 24 h. At the end of the incubation, 20 μL of MTT (thiazolyl blue tetrazolium bromide) solution (from a 5 mg/mL stock solution) was added to each well. After incubation at 37 °C for 4 h, 100 μL of sodium dodecyl sulfate (SDS) solution (10% SDS in 0.01 M HCl) was added to each well, and the plates were further incubated at 37 °C overnight. Cell growth was determined by measuring the optical density (OD) at 540 nm (ref. 630 nm) with a Multiscan EX ELISA reader (Thermo Labsystems, Cheshire, WA, USA). Inhibition of cell growth was expressed as IC50 values, defined as the inhibitory dose that reduces the growth of the cells exposed to the tested compounds by 50%. IC50 values and the SD of triplicate and duplicate (in the case of MRC-5) experiments were calculated by using GraphPad Prism software version 5.00 for Windows, with a non-linear regression curve fit (GraphPad Software, San Diego, CA, USA; www.graphpad.com, accessed on 12 July 2021). Doxorubicin (from a 2 mg/mL stock solution, Teva Pharmaceuticals) was used as a positive control. […] The relative resistance (RR) was calculated as the ratio of the IC50 value in the resistant cancer cells and the IC50 value in the sensitive cancer cell lines. The selectivity indexes (SI) were calculated as the ratio of the IC50 value in the non-tumor cells and the IC50 value in the cancer cell lines. The activity of the compounds towards cancer cells is considered to be strongly selective if the selectivity index (SI) value is higher than 6, moderately selective if 3 < SI < 6, slightly selective if 1 < SI < 3, and non-selective if the SI is lower than 1 [22].

[2] = tested on: MRC-5 embryonic lung fibroblast cell line; test: MTT cytotoxicity assay on normal MRC-5 fibroblasts; conditions: for IC50: Homo sapiens; for Cytotoxic effect on normal MRC-5 cells (in words): up to 100 µM
Description: as §1, §2

[3] = tested on: Colo320/MDR-LRP colon adenocarcinoma cell line; test: MTT cytotoxicity assay on doxorubicin-resistant, ABCB1- and LRP-expressing Colo320 cells; conditions: for IC50: Homo sapiens, COLO 320; for IC50 / Cytotoxic effect on Colo320 cells (in words): MTT; for Cytotoxic effect on Colo320 cells (in words): up to 100 µM; for Selectivity index SI MRC-5/Colo320: ratio of IC50 in non-tumor MRC-5 cells and IC50 in Colo320
Description: as §1, §2

[4] = 24 h incubation, average of 3 parallel experiments, read-out: IC50 Colo205 AV ± SD
[5] = MRC5, 24 h incubation, average of 2 parallel experiments, read-out: IC50 MRC-5 AV ± SD
[6] = 24 h incubation, average of 3 parallel experiments, read-out: IC50 Colo320 AV ± SD
[7] = 24 h, single experiment, read-out: IC50 Colo320, parallel experiment 1
[8] = 24 h, single experiment, read-out: IC50 Colo320, parallel experiment 2
[9] = 24 h, single experiment, read-out: IC50 Colo320, parallel experiment 3
[10] = 24 h, single experiment, read-out: IC50 Colo205, parallel experiment 1
[11] = 24 h, single experiment, read-out: IC50 Colo205, parallel experiment 2
[12] = 24 h, single experiment, read-out: IC50 Colo205, parallel experiment 3
[13] = MRC5, 24 h, single experiment, read-out: IC50 MRC-5, parallel experiment 1
[14] = MRC5, 24 h, single experiment, read-out: IC50 MRC-5, parallel experiment 2

O=C1Oc2ccc3ccccc3c2C1c1c[nH]c2ccccc12 (stereo not shown) [Compound 3, 1-(1H-indol-3-yl)naphtho[2,1-b]furan-2(1H)-one]
IC50 [1, 4]: > 100 µM | Cytotoxic effect on Colo205 cells (in words) [1]: no effect | IC50 [2, 5]: > 100 µM | IC50 [3, 6]: > 100 µM | Cytotoxic effect on Colo320 cells (in words) [3]: no effect

CCOC(=O)C(c1ccc2ccccc2c1O)c1c[nH]c2ccccc12 (stereo not shown) [Compound 7, Ethyl 2-(1-hydroxynaphthalen-2-yl)-2-(1H-indol-3-yl)acetate]
IC50 [1, 4]: > 100 µM | Cytotoxic effect on Colo205 cells (in words) [1]: no effect | IC50 [2, 5]: > 100 µM | IC50 [3, 7]: 53.8 µM | IC50 [3, 8]: 54.9 µM | IC50 [3, 9]: 52.2 µM | IC50 [3, 6]: 53.6 ± 1.38 µM

CCOC(=O)C(c1cc(Cl)c2cccnc2c1O)N1CCOCC1 (stereo not shown) [Compound 10, Ethyl 2-(5-chloro-8-hydroxyquinolin-7-yl)-2-morpholinoacetate]
IC50 [1, 10]: 2.07 µM | IC50 [1, 11]: 2.06 µM | IC50 [1, 12]: 2.02 µM | IC50 [1, 4]: 2.05 ± 0.02 µM | Selectivity index SI MRC-5/Colo205 [1]: >6 | IC50 [2, 5]: > 100 µM | Cytotoxic effect on normal MRC-5 cells (in words) [2]: no toxicity | IC50 [3, 7]: 1.56 µM | IC50 [3, 8]: 1.81 µM | IC50 [3, 9]: 1.79 µM | IC50 [3, 6]: 1.72 ± 0.14 µM | Selectivity index SI MRC-5/Colo320 [3]: >6

CCOC(=O)C(c1cc(Cl)c2cccnc2c1O)c1c[nH]c2ccccc12 (stereo not shown) [Compound 11, Ethyl 2-(5-chloro-8-hydroxyquinolin-7-yl)-2-(1H-indol-3-yl)acetate]
IC50 [1, 10]: 5.51 µM | IC50 [1, 11]: 4.71 µM | IC50 [1, 12]: 4.42 µM | IC50 [1, 4]: 4.88 ± 0.56 µM | Selectivity index SI MRC-5/Colo205 [1]: 11.2 | IC50 [2, 13]: 54.5 µM | IC50 [2, 14]: 55.1 µM | IC50 [2, 5]: 54.77 ± 0.44 µM | Cytotoxic effect on normal MRC-5 cells (in words) [2]: mild cytotoxic effect | IC50 [3, 7]: 4.64 µM | IC50 [3, 8]: 4.83 µM | IC50 [3, 9]: 4.96 µM | IC50 [3, 6]: 4.81 ± 0.16 µM | Selectivity index SI MRC-5/Colo320 [3]: 11.4

CCOC(=O)C(c1cc(Cl)c2cccnc2c1O)c1c[nH]c2ncccc12 (stereo not shown) [Compound 12, Ethyl 2-(5-chloro-8-hydroxyquinolin-7-yl)-2-(7-azaindole-3-yl)acetate]
IC50 [1, 10]: 8.05 µM | IC50 [1, 11]: 7.42 µM | IC50 [1, 12]: 8.84 µM | IC50 [1, 4]: 8.11 ± 0.71 µM | Selectivity index SI MRC-5/Colo205 [1]: 5.7 | IC50 [2, 13]: 46.9 µM | IC50 [2, 14]: 45.6 µM | IC50 [2, 5]: 46.2 ± 0.95 µM | Cytotoxic effect on normal MRC-5 cells (in words) [2]: mild cytotoxic effect | IC50 [3, 7]: 5.16 µM | IC50 [3, 8]: 4.92 µM | IC50 [3, 9]: 5.11 µM | IC50 [3, 6]: 5.06 ± 0.12 µM | Selectivity index SI MRC-5/Colo320 [3]: 9.1

Oc1c(C(c2ccccc2)c2c[nH]c3ccccc23)cc(Cl)c2cccnc12 (stereo not shown) [Compound 14, 7-((1H-indol-3-yl)(phenyl)methyl)-5-chloroquinolin-8-ol]
IC50 [1, 10]: 2.49 µM | IC50 [1, 11]: 2.49 µM | IC50 [1, 12]: 2.63 µM | IC50 [1, 4]: 2.53 ± 0.08 µM | Selectivity index SI MRC-5/Colo205 [1]: 11.7 | IC50 [2, 13]: 30.1 µM | IC50 [2, 14]: 29.3 µM | IC50 [2, 5]: 29.7 ± 0.57 µM | Cytotoxic effect on normal MRC-5 cells (in words) [2]: mild cytotoxic effect | IC50 [3, 7]: 2.55 µM | IC50 [3, 8]: 2.84 µM | IC50 [3, 9]: 2.78 µM | IC50 [3, 6]: 2.72 ± 0.15 µM | Selectivity index SI MRC-5/Colo320 [3]: 11

Oc1c(Cc2c[nH]c3ccccc23)cc(Cl)c2cccnc12 [Compound 16, 7-((1H-indol-3-yl)methyl)-5-chloroquinolin-8-ol]
IC50 [1, 10]: 13.6 µM | IC50 [1, 11]: 13.4 µM | IC50 [1, 12]: 12.3 µM | IC50 [1, 4]: 13.1 ± 0.7 µM | Selectivity index SI MRC-5/Colo205 [1]: >6 | IC50 [2, 5]: > 100 µM | Cytotoxic effect on normal MRC-5 cells (in words) [2]: no toxicity | IC50 [3, 7]: 4.97 µM | IC50 [3, 8]: 4.74 µM | IC50 [3, 9]: 4.91 µM | IC50 [3, 6]: 4.87 ± 0.12 µM | Cytotoxic effect on Colo320 cells (in words) [3]: potent toxic activity | Selectivity index SI MRC-5/Colo320 [3]: >6

Oc1c(Cc2c[nH]c3ncccc23)cc(Cl)c2cccnc12 [Compound 17, 7-((7-azaindole-3-yl)methyl)-5-chloroquinolin-8-ol]
IC50 [1, 10]: 36.5 µM | IC50 [1, 11]: 39.4 µM | IC50 [1, 12]: 40.4 µM | IC50 [1, 4]: 38.8 ± 2.03 µM | IC50 [2, 5]: > 100 µM | IC50 [3, 7]: 23 µM | IC50 [3, 8]: 21.9 µM | IC50 [3, 9]: 22.5 µM | IC50 [3, 6]: 22.5 ± 0.55 µM

COc1cccc2c1C(=O)c1c(O)c3c(c(O)c1C2=O)C[C@@](O)(C(=O)CO)C[C@@H]3O[C@H]1C[C@H](N)[C@H](O)[C@H](C)O1 [DOX, Doxorubicin, reference compound]
IC50 [1, 10]: 0.84 µM | IC50 [1, 11]: 0.89 µM | IC50 [1, 12]: 0.81 µM | IC50 [1, 4]: 0.85 ± 0.04 µM | IC50 [2, 5]: > 8.62 µM | IC50 [3, 7]: 3.12 µM | IC50 [3, 8]: 3.12 µM | IC50 [3, 9]: 2.96 µM | IC50 [3, 6]: 3.07 ± 0.09 µM
